In the assay the target is T1, HIV-1 protease (Human immunodeficiency virus type 1 group M subtype B, UniProt P04585).
T1 construct: The protease (or proteinase), consisting of only 99 amino acids, is among the smallest enzymes known
Description: In vitro HIV protease inhibitory assay (HIV Protease FITC Assay). Format: biochemical. Particulars: for inhibition at 1 µM / inhibition at 10 µM / inhibition at 100 µM: read-out: HIV-1 Protease % Inhib. How it is done: The HIV protease screening assay is based on a fluorescently labeled substrate which can be resolved from nonlabeled cleavage product using avidin-polystyrene particles, 0.7-0.9 µm. The substrate is biotinylated at the amino terminal arginine and fluorescently labeled with fluorescein isothiocynate (FITC) at the carboxyl terminal lysine. […] Substrate (20 µl of 0.2 µM), sample (10 µl of desired concentraion), and enzyme (10 µl of 0.1 µM) are added to a 96 well pandex plate. The assay is run in 0.1 M sodium acetate buffer at pH 5.5 in the presence of 1.0 M sodium chloride and 0.05% NP-40 and incubated in the dark for one hour at room temperature. Avidin coated polystyrene beads {40 µl of 0.1% (w/v)} are added and the incubation is continued in the dark for an additional half hour. The labeled cleavage product is separated from the unreacted substrate via filtration and is read on the Idexx Screen Machine. The data are analyzed by appropriate computer algorithms to ascertain percent inhibition values.

Bounds are passed on as bounds.

What is called IC50 is the concentration needed to halve the response being measured. “3-(.alpha.-ethylbenzyl)-4-hydroxy-6-(3-butenyl)-2H-Pyran-2-one [Example 10]” came in with an IC50 of 2.9 µM. For the setting “HIV-1 Dose 1.000 uM”, the “HIV-1 Protease % Inhib” value is listed as 14.18%. The “HIV-1 Protease % Inhib” value (HIV-1 Dose 10.000 uM) turned out to be 82.75%. Also, the “HIV-1 Protease % Inhib” value (HIV-1 Dose 100.000 uM) is listed as 104.37%.

“3-(.alpha.-ethylbenzyl)-4-hydroxy-6-propyl-2H-Pyran-2-one [Example 9]” gave an IC50 of 19.2 µM. Moreover, under “HIV-1 Dose 1.000 uM”, the “HIV-1 Protease % Inhib” value is recorded as 16.27%. For the same compound, the “HIV-1 Protease % Inhib” value (HIV-1 Dose 10.000 uM) is 73.49%. Also, the “HIV-1 Protease % Inhib” value (HIV-1 Dose 100.000 uM) worked out at 98.35%.

With “3-(α-Cyclopropyl-meta-(tert-butyloxycarbonylamino)benzyl)-6-(α-cyclopropylmethyl-cyclopropylethyl)-4-hydroxy-2H-pyran-2-one [Example 38]”, the “HIV-1 Protease % Inhib” value is given as under 10% (HIV-1 Dose 0.123 uM); under 10% (HIV-1 Dose 0.370 uM); under 10% (HIV-1 Dose 1.100 uM); 26.72% (HIV-1 Dose 3.300 uM); 58.44% (HIV-1 Dose 10.000 uM); 69.94% (HIV-1 Dose 30.000 uM).

`CCC(c1ccccc1)c1c(O)cc(-c2ccccc2)oc1=O` (stereo not drawn) [Example 1, 3-(α-ethylbenzyl)-4-hydroxy-6-phenyl-2H-Pyran-2-one]: the inhibition at 1 µM (HIV-1 Dose 1.000 uM) was under 10%. Besides, under “HIV-1 Dose 10.000 uM”, the inhibition at 10 µM came out at 45.5%. In addition, under “HIV-1 Dose 100.000 uM”, the inhibition at 100 µM turned out to be 80%.

Regarding `CCC(c1ccccc1)c1c(O)cc(Cc2ccccc2)oc1=O` (stereo not drawn) [Example 2, 6-benzyl-3-(α-ethylbenzyl)-4-hydroxy-2H-Pyran-2-one], for the setting “HIV-1 Dose 1.000 uM”, the inhibition at 1 µM is under 10%. Moreover, the inhibition at 10 µM (HIV-1 Dose 10.000 uM) amounted to 38.7%. The inhibition at 100 µM (HIV-1 Dose 100.000 uM) stood at 74.3%.

Take `CCCC(c1ccc(Br)cc1)c1c(O)cc(CCc2ccccc2)oc1=O` (stereo not drawn) [Example 4, 4-hydroxy-6-phenethyl-3-(α-propyl-p-bromobenzyl)-2H-Pyran-2-one]: the inhibition at 1 µM (HIV-1 Dose 1.000 uM) was under 10%. For the same compound, for the setting “HIV-1 Dose 10.000 uM”, the inhibition at 10 µM came to 15.8%. The inhibition at 100 µM (HIV-1 Dose 100.000 uM) is 51.2%.

Consider `CCC(c1ccccc1)c1c(O)cc(CCc2ccc(Br)cc2)oc1=O` (stereo not drawn) [Example 6, 6-(p-bromophenethyl)-3-(α-ethylbenzyl)-4-hydroxy-2H-Pyran-2-one], for which, under “HIV-1 Dose 1.000 uM”, the inhibition at 1 µM worked out at 15.6%. For the same compound, the inhibition at 10 µM (HIV-1 Dose 10.000 uM) came out at 39.6%. Besides, the inhibition at 100 µM (HIV-1 Dose 100.000 uM) was 69.7%.

`CCC(c1ccccc1)c1c(O)cc(CCc2ccccc2F)oc1=O` (stereo not drawn) [Example 7, 3-(α-ethylbenzyl)-6-(o-fluorophenethyl)-4-hydroxy-2H-Pyran-2-one]: 6.4 µM corresponded to half-maximal inhibition (IC50). The inhibition at 1 µM (HIV-1 Dose 1.000 uM) was 14%. Besides, the inhibition at 10 µM (HIV-1 Dose 10.000 uM) amounted to 74.1%. In addition, under “HIV-1 Dose 100.000 uM”, the “HIV-1 Protease % Inhib” value is listed as 109% and the inhibition at 100 µM was 109%.

The compound `CCC(c1ccccc1)c1c(O)cc(CCCc2ccccc2)oc1=O` (stereo not drawn) [Example 8, 3-(α-ethylbenzyl)-4-hydroxy-6-(3-phenylpropyl)-2H-Pyran-2-one] showed an IC50 of 3.9 µM. The inhibition at 1 µM (HIV-1 Dose 1.000 uM) was 15.8%. Moreover, where the note is “HIV-1 Dose 10.000 uM”, the inhibition at 10 µM was 79%. For the setting “HIV-1 Dose 100.000 uM”, the “HIV-1 Protease % Inhib” value was determined as 97% and the inhibition at 100 µM was 96.6%.

With `CCC(c1ccccc1)c1c(O)cc(CC(=O)Nc2ccccc2)oc1=O` (stereo not drawn) [Example 11, 3-(α-ethylbenzyl)-4-hydroxy-6-[[(phenylamino)carbonyl]methyl]-2H-Pyran-2-one], the inhibition at 1 µM (HIV-1 Dose 1.000 uM) is 10.8%. In addition, the inhibition at 10 µM (HIV-1 Dose 10.000 uM) was determined as 35.6%. For the same compound, the inhibition at 100 µM (HIV-1 Dose 100.000 uM) was 79.8%.

Consider `C=CC(c1ccccc1)c1c(O)cc(CCc2ccccc2)oc1=O` (stereo not drawn) [Example 12, 4-hydroxy-6-phenethyl-3-(α-vinylbenzyl)-2H-Pyran-2-one], for which the IC50 was 5.4 µM. Moreover, the inhibition at 1 µM (HIV-1 Dose 1.000 uM) turned out to be 17.5%. For the setting “HIV-1 Dose 10.000 uM”, the inhibition at 10 µM is 67.4%. Further, under “HIV-1 Dose 100.000 uM”, the “HIV-1 Protease % Inhib” value is on record as 107% and the inhibition at 100 µM turned out to be 107%.

Consider `CCC(CC)c1cc(O)c(C(CC)c2ccccc2)c(=O)o1` (stereo not shown) [Example 14, 6-(1'-Ethyl-propyl)-4-hydroxy-3-(1'-phenyl-propyl)-2-pyrone], for which inhibition was half-maximal at 2.2 µM (IC50). Also, the inhibition at 1 µM (HIV-1 Dose 1.000 uM) was determined as 40.2%. The inhibition at 10 µM (HIV-1 Dose 10.000 uM) amounted to 90.2%. In addition, under “HIV-1 Dose 100.000 uM”, the inhibition at 100 µM was 105%.

In turn, `CCC(c1ccccc1)c1c(O)cc(C=Cc2ccc(OC)cc2)oc1=O` (stereo not drawn) [Example 15, 3-(α-ethylbenzyl)-4-hydroxy-6-(p-methoxystyryl)-2H-Pyran-2-one] showed an IC50 of 9.7 µM. Also, the inhibition at 1 µM (HIV-1 Dose 1.000 uM) came to 21.5%. Moreover, for the setting “HIV-1 Dose 10.000 uM”, the inhibition at 10 µM was 84%. Further, the inhibition at 100 µM (HIV-1 Dose 100.000 uM) came out at 102%.

Take `CCC(c1ccccc1)c1c(O)cc(CCc2ccc3ccccc3c2)oc1=O` (stereo not drawn) [Example 16, 3-(α-ethylbenzyl)-4-hydroxy-6-(2-naphth-2-ylethyl)-2H-Pyran-2-one]: the inhibition at 1 µM (HIV-1 Dose 1.000 uM) was under 10%. Further, the inhibition at 10 µM (HIV-1 Dose 10.000 uM) is under 10%. The inhibition at 100 µM (HIV-1 Dose 100.000 uM) is 49.9%.

`CCC(Cc1ccc2ccccc2c1)c1cc(O)c(C(CC)c2ccccc2)c(=O)o1` (stereo not drawn) [Example 17, 3-(α-ethylbenzyl)-4-hydroxy-6-(1-ethyl-2-naphth-2-ylethyl)-2H-Pyran-2-one]: the inhibition at 1 µM (HIV-1 Dose 1.000 uM) is under 10%. Also, the inhibition at 10 µM (HIV-1 Dose 10.000 uM) came out at 49.5%. In addition, the inhibition at 100 µM (HIV-1 Dose 100.000 uM) stood at 73.6%.

As for `CCC(c1ccccc1)c1c(O)cc(CCc2cccc3ccccc23)oc1=O` (stereo not drawn) [Example 18, 3-(α-ethylbenzyl)-4-hydroxy-6-(2-naphth-1-ylethyl)-2H-Pyran-2-one], the inhibition at 1 µM (HIV-1 Dose 1.000 uM) was under 10%. Moreover, the inhibition at 10 µM (HIV-1 Dose 10.000 uM) worked out at 42.1%. For the same compound, the inhibition at 100 µM (HIV-1 Dose 100.000 uM) stood at 86.8%.

Consider `CCC(Cc1cccc2ccccc12)c1cc(O)c(C(CC)c2ccccc2)c(=O)o1` (stereo not drawn) [Example 19, 3-(α-ethylbenzyl)-4-hydroxy-6-(1-ethyl-2-naphth-1-ylethyl)-2H-Pyran-2-one], for which the inhibition at 1 µM (HIV-1 Dose 1.000 uM) is 11%. The inhibition at 10 µM (HIV-1 Dose 10.000 uM) turned out to be 79.3%. Besides, the inhibition at 100 µM (HIV-1 Dose 100.000 uM) was 84.3%.

Regarding `Cc1cc(O)c(C(c2ccccc2)C2CC2)c(=O)o1` (stereo not drawn) [Example 20, 3-(α-cyclopropylbenzyl)-4-hydroxy-6-methyl-2H-Pyran-2-one], where the note is “HIV-1 Dose 1.000 uM”, the inhibition at 1 µM is under 10%. Moreover, the inhibition at 10 µM (HIV-1 Dose 10.000 uM) was under 10%. For the same compound, for the setting “HIV-1 Dose 100.000 uM”, the inhibition at 100 µM worked out at 60.6%.

In the case of `O=c1oc(CCCc2ccccc2)cc(O)c1C(c1ccccc1)C1CC1` (stereo not drawn) [Example 21, 3-(α-cyclopropylbenzyl)-4-hydroxy-6-(3-phenylpropyl)-2H-Pyran-2-one], it took 9.6 µM to reach half-maximal inhibition (IC50). For the same compound, the inhibition at 1 µM (HIV-1 Dose 1.000 uM) turned out to be 17.6%. Where the note is “HIV-1 Dose 10.000 uM”, the inhibition at 10 µM was found to be 83.7%. The inhibition at 100 µM (HIV-1 Dose 100.000 uM) was 110%.

For `CCC(CC)c1cc(O)c(C(c2ccccc2)C2CC2)c(=O)o1` (stereo not drawn) [Example 22, 3-(α-cyclopropylbenzyl)-6-(1-ethylpropyl)-4-hydroxy-2H-Pyran-2-one], it took 1.8 µM to reach half-maximal inhibition (IC50). Also, under “HIV-1 Dose 1.000 uM”, the inhibition at 1 µM came out at 33.8%. Under “HIV-1 Dose 10.000 uM”, the inhibition at 10 µM turned out to be 98.3%. Besides, the inhibition at 100 µM (HIV-1 Dose 100.000 uM) was found to be 108%.

With `O=c1oc(C(Cc2ccccc2)Cc2ccccc2)cc(O)c1C(c1ccccc1)C1CC1` (stereo not drawn) [Example 23, 3-(α-cyclopropylbenzyl)-6-(α-benzylphenethyl)-4-hydroxy-2H-Pyran-2-one], the IC50 came out at 3 µM. For the same compound, under “HIV-1 Dose 1.000 uM”, the inhibition at 1 µM was under 10%. Moreover, the inhibition at 10 µM (HIV-1 Dose 10.000 uM) was determined as 77.9%. In addition, the inhibition at 100 µM (HIV-1 Dose 100.000 uM) worked out at 87%.

For the origin of these results see patent publication EP1203770A1 (priority 1992, dated 1994).
